In patent US12419869B2, “Methods of treating multiple sclerosis” (Vanda Pharmaceuticals Inc., priority 2021, dated 2025):

Assays:
[1] = Pharmacokinetics in hepatic impairment (Child-Pugh class A, B, C); type: in vivo, human
[2] = system: adult subjects with relapsing MS; assay: Fatigue-related symptoms, FSIQ-RMS weekly symptoms score, change from baseline to Week 108; type: in vivo, human
Experimental: (§1) In some embodiments, the patient-reported outcome questionnaire is the symptom domain of the FSIQ-RMS. The FSIQ-RMS symptom domain (FSIQ-RMS-S) consists of seven items assessing fatigue-related symptoms with a recall period of 24 hours measured on an 11-point numeric rating scale; the standardized symptom domain score ranges from 0 to 100 with a higher score indicating greater fatigue. This domain (i.e., section 1 of the questionnaire) is completed on 7 consecutive days.
The patient-reported outcome questionnaire used for the below Examples is the Fatigue Symptoms and Impact Questionnaire—Relapsing Multiple Sclerosis (FSIQ-RMS). The FSIQ-RMS is an MS specific 20-item PRO measure that comprises 2 domains: one measuring MS symptoms (7 items) and one measuring MS-related impacts (13 items). The 7 symptom items and 13 impact items (in 3 impacts subdomains: physical, cognitive and emotional, and coping) are presented below.
For the MS symptoms domain, the FSIQ-RMS asks about a patient's fatigue-related symptoms of relapsing MS over the past 24 hours while doing routine daily activities (e.g., housework, yard work, shopping, working, etc.) for Items 1-6 or while at rest (e.g., reading a book, watching TV, etc.) for Item 7. Patients are asked to select a response on a scale of 0 to 10 that best describes their experience and are asked to not skip any questions, with no answers being right or wrong.
Secondary efficacy variables and testing strategy: Four secondary efficacy endpoints were analyzed as per the statistical testing strategy outlined in FIG. 1. • Change from baseline to Week 108 in fatigue-related symptoms as measured by the symptoms domain of the FSIQ-RMS patient-reported outcome [Fatigue] • Cumulative number of combined unique active lesions from baseline to Week 108 on brain MRI [CUALs] • Time to first 12-week confirmed disability accumulation (CDA) from baseline to EOS on Expanded Disability Status Scale (EDSS) [12-week CDA] • Time to first 24-week CDA from baseline to EOS on EDSS [24-week CDA]
as §1, with “The” for “In some embodiments, the patient-reported outcome questionnaire is the symptom domain of the FSIQ-RMS. The”
FSIQ-RMS was completed during the pre-randomization period, at Visits 6, 7, 10, and 12 (Weeks 12, 24, 60, 84), 14 (EOT), and at unscheduled visits due to relapses (R1, R2, etc.) or other unscheduled visits (U1, U2, etc.) as described below. If applicable, FSIQ-RMS was performed at the corresponding visits in the PTOP.
After randomization, the symptoms domain of the FSIQ-RMS (i.e., section 1 of the questionnaire) was completed by the subject at home on a daily basis, starting in the evening of the day of a visit when the FSIQ-RMS was administered (Day 1 of questionnaire administration cycle) and during the 6 subsequent days (i.e., over 7 days in total). Subjects returned the completed FSIQ-RMS diary at the next scheduled visit. On the seventh day, the subject completed the impact domain of the FSIQ-RMS (i.e., section 2 of the questionnaire). If applicable, at the end of the PTOP, the FSIQ-RMS was completed prior to Visit 14A (Week 108), ideally, during the 7 consecutive days preceding the visit.

Ames assay = type: cell-based; details: in vitro
Source text: Ponesimod was negative in a battery of in vitro (Ames, chromosomal aberration in mammalian cells) and in vivo (micronucleus in rat) assays.

female rats = assay: Pre- and postnatal development study in female rats, oral; type: in vivo, rat
Source text: There are no data on the presence of PONVORY in human milk, the effects on the breastfed infant, or the effects of the drug on milk production.

Solubility in water = type: physicochemical
S1P receptor 1 = S1P receptor 1 (Homo sapiens, UniProt P21453); assay: S1P receptor binding / activity
Chain of S1P receptor 1 (P21453 whole entry): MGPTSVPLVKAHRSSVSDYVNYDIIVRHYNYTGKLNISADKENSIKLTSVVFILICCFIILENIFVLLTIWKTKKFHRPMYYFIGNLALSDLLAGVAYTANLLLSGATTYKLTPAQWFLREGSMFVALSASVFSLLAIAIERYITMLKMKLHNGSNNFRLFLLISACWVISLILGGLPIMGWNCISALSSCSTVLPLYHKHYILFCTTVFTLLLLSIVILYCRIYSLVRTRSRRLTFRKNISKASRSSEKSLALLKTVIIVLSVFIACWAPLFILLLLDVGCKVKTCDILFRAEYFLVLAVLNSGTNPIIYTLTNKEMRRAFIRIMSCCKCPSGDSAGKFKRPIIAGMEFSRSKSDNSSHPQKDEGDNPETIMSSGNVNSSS
Source text: Ponesimod is extensively metabolized prior to excretion in humans, though unchanged ponesimod was the main circulating component in plasma. […] M13 and M12 are respectively about 20% and 6% of total drug-related exposure.

[3] = system: CYP or UGT enzymes, or transporters; assay: In vitro investigations of drug-drug interaction potential; type: in vitro ADME; details: at recommended dose of 20 mg once-daily
in vitro = in vitro ADME; details: human, plasma
Source text: (§2) Ponesimod is highly bound to plasma proteins (>99%) and is mainly (78.5%) distributed in the plasma fraction of whole blood.

plasma proteins = assay: in vitro; type: in vitro ADME
Source text: as §2

heart rate = assay: Heart rate pharmacodynamics, dose dependence; design: species or system human; details: in vivo
Experimental: PONVORY causes a transient dose-dependent reduction in heart rate (HR) and AV conduction delays upon treatment initiation [see Warnings and Precautions (5.2)]. The heart rate decreases plateaued at doses greater than or equal to 40 mg [2 times the recommended maintenance dosage], and bradyarrhythmic events (AV blocks) were detected at a higher incidence under PONVORY treatment, compared to placebo. This effect starts within the first hour of dosing and is maximal at 2-4 hours post-dose. HR generally returns to pre-dose values by 4-5 hours post-dose on Day 1, and the effect diminishes with repeated administration. indicating tolerance.

mice = assay: Carcinogenesis, mice, oral up to 2 years; type: in vivo, mouse
Experimental: Plasma exposure (AUC) at to lowest dose tested in males (50 mg/kg/day) was approximately 5 times that in humans at the recommended human dose (RHD) of 20 mg.

[4] = Week 108, baseline EDSS <3.5 (title: ≤3.5)
[5] = Week 108, baseline fatigue below the median
[6] = Week 108, no Gd+ T1 lesions at baseline
[7] = Week 108, no prior DMT treatment

CCC/N=C1\S/C(=C\c2ccc(OC[C@H](O)CO)c(Cl)c2)C(=O)N1c1ccccc1C [Ponesimod, (R)-5-[3-chloro-4-(2,3-dihydroxy-propoxy)-benz[Z]ylidene]-2-([Z]-propylimino)-3-o-tolyl-thiazolidin-4-one]
Increase of AUC0-∞ vs healthy subjects ([1]; mild hepatic impairment (Child-Pugh A)): 1.3 fold | Change in Cmax vs healthy subjects ([1]; mild, moderate, or severe hepatic impairment): no change | Increase of AUC0-∞ vs healthy subjects ([1]; moderate hepatic impairment (Child-Pugh B)): 2.0 fold | Increase of AUC0-∞ vs healthy subjects ([1]; severe hepatic impairment (Child-Pugh C)): 3.1 fold | FSIQ-RMS change from baseline to Week 108, mean difference ponesimod vs teriflunomide ([2]; Full Analysis Set): −3.57 | Change from baseline to Week 108 in FSIQ-RMS weekly symptoms score (mean, MMRM) ([2]; Full Analysis Set, increase = worsening): −0.01 | Change in FSIQ-RMS-S total score: Improved (<−6.3), patients ([2]; Week 108, Full Analysis Set): 30.5% | Change in FSIQ-RMS-S total score: Stable (−6.3 < × < +6.3), patients ([2]; Week 108, Full Analysis Set): 38.4% | Change in FSIQ-RMS-S total score: Stable or Improved, patients ([2]; Week 108, Full Analysis Set): 68.9% | Change in FSIQ-RMS-S total score: Worsened (≥6.3), patients ([2]; Week 108, Full Analysis Set): 31.1% | FSIQ-RMS change: Improved (<−6.3), patients [2, 4]: 30.6% | FSIQ-RMS change: Stable (−6.3 < × < +6.3), patients [2, 4]: 40.8% | FSIQ-RMS change: Stable or Improved, patients [2, 4]: 71.4% | FSIQ-RMS change: Worsened (≥6.3), patients [2, 4]: 28.6% | FSIQ-RMS change: Improved (<−6.3), patients [2, 5]: 19.1% | FSIQ-RMS change: Stable (−6.3 < × < +6.3), patients [2, 5]: 45.2% | FSIQ-RMS change: Stable or Improved, patients [2, 5]: 64.4% | FSIQ-RMS change: Worsened (≥6.3), patients [2, 5]: 35.6% | FSIQ-RMS change: Stable (−6.3 < × < +6.3), patients [2, 6]: 37.4% | FSIQ-RMS change: Stable or Improved, patients [2, 6]: 67.5% | FSIQ-RMS change: Worsened (≥6.3), patients [2, 6]: 32.5% | FSIQ-RMS change: Improved (<−6.3), patients [2, 7]: 31.4% | FSIQ-RMS change: Stable (−6.3 < × < +6.3), patients [2, 7]: 44.0% | FSIQ-RMS change: Stable or Improved, patients [2, 7]: 75.4% | FSIQ-RMS change: Worsened (≥6.3), patients [2, 7]: 24.6% | FSIQ-RMS change: Improved (<−6.3), patients ([2]; Week 108, no prior DMT treatment, listed as ponesimod): 31.4% | Ames assay result (Ames assay): negative | No-effect dose for adverse effects on pre- and postnatal development in rats (female rats; 5, 10, or 20 mg/kg oral): not identified | Plasma exposure (AUC) in dams at lowest dose tested vs humans at RHD (female rats; rat, in vivo): less than that in humans | Presence in offspring after dosing of female rats during pregnancy and lactation (female rats; suggesting excretion in milk): detected in the plasma of the offspring | Solubility in water (Solubility in water): practically insoluble or insoluble in water | Binding to S1P receptor 1 (S1P receptor 1): binds with high affinity | Drug-drug interaction potential for CYP or UGT enzymes, or transporters [3]: do not show any clinically relevant drug-drug interaction potential | fraction unbound (in vitro): < 0.01 | Distribution in the plasma fraction of whole blood (plasma proteins): 78.5% | Plasma protein binding (plasma proteins; human, plasma): greater than 99% | Dose at which heart rate decreases plateaued (heart rate): greater than or equal to 40 mg | Carcinogenicity findings in mice (mice; males all doses (50, 150, 400 mg/kg/day), females highest dose (300 mg/kg/day)): incidences in hemangiosarcoma and combined hemangioma and hemangiosarcoma | Plasma exposure (AUC) at lowest dose in male mice (50 mg/kg/day) relative to humans at RHD (mice; mouse, in vivo): approximately 5 times
